Like-named read-outs stand apart in the source and are kept apart here.
Legend:
[1] = test system: estrogen-responsive reporter gene (ERE-tk109-Luc) in MCF-7 cells; experiment: Inhibition of E2-induced transcription, ERE-tk109-Luc reporter gene in MCF-7 cells; assay type: cell-based, human; settings: 100 pM 17β-estradiol (E2), 18-22 hours, read-out: IC50, inhibition of E2-induced transcription in breast cells
Experimental: Representative compounds were tested for their inhibitory activity of estrogen according to the assay methods described in Hodges-Gallagher, L., Valentine, C. V., El Bader, S. and Kushner, P. J. (2007) “Histone Deacetylase Inhibitors Enhance the Efficacy of Hormonal Therapy Agents on Breast Cancer Cells and Blocks Anti-estrogen-Driven Uterine Cell Proliferation” Breast Cancer Res Treat, November; 105(3):297-309. Specifically, an estrogen-responsive reporter gene (ERE-tk109-Luc) was transiently transfected into MCF-7 cells and treated with anti-estrogens in triplicate in the presence of 100 pM 17β-estradiol (E2) for 18-22 hours. Luciferase activity was normalized to activity of E2 alone and IC50's were calculated using the least squares fit method.

[2] = test system: MCF-7 breast cancer cells; experiment: Inhibition of E2-stimulated proliferation of MCF-7 breast cancer cells; assay type: cell-based, human; settings: 100 pM E2, hormone-depleted medium, 6-8 days
Experimental: Proliferation of MCF-7 breast cancer cells was measured using a fluorescent DNA binding dye 6-8 days after treatment in triplicate with representative compounds in the presence of 100 pM E2 in hormone-depleted medium. IC50's were calculated from individual experiments as in Example 25.

ERα = molecular target: T1, ERα (Homo sapiens, UniProt P03372); experiment: ERα expression in MCF-7 cell lysates (immunoblot); assay type: cell-based; settings: MCF-7 cells, 100 nM compound, serum-free medium, 24 hours, immunoblot band intensity
T1 construct: ERα expression was detected in MCF-7 cell lysates treated with 100 nM antiestrogens in serum-free medium for 24 hours; endogenous in cells; host or cells: MCF-7
T1 sequence (P03372 1-595): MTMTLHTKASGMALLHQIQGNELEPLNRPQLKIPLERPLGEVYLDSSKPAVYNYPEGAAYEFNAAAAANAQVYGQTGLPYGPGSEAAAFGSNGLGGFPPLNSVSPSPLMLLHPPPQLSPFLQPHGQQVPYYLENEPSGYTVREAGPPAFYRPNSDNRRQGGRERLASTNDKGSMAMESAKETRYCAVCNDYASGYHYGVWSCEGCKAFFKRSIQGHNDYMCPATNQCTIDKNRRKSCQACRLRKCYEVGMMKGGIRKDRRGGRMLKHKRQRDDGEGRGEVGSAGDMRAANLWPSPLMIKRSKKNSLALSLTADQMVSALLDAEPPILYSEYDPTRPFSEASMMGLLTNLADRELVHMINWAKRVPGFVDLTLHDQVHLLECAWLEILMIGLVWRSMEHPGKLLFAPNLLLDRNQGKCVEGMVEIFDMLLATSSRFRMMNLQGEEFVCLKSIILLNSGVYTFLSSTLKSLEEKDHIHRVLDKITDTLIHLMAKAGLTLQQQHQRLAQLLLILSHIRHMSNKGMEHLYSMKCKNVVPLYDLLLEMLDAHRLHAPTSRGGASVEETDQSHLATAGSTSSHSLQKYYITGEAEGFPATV
Experimental: ERα expression was detected in MCF-7 cell lysates treated with 100 nM antiestrogens in serum-free medium for 24 hours and immunoblotted with an antibody specific to ERα.
Band intensity was normalized relative to vehicle for each individual experiment and listed in Table 3 (Relative change ERα levels (% vehicle)).

[3] = test system: AP activity in ECC-1 cells; experiment: Alkaline phosphatase (AP) assay in ECC-1 uterine cells, induction of AP activity; assay type: cell-based, human; settings: 3 days, normalized to 500 pM E2, maximum activity observed regardless of dose
Experimental: (§1) Method for performing the alkaline phosphatase (AP) assay. ECC-1 cells (American Type Culture Collection, Manassas, Va.) were maintained in RPMI medium plus 10% fetal bovine serum at 37° C. At the beginning of the assay trypsinized cells were resuspended in RPMI medium plus 5% charcoal dextran stripped serum (CDSS, (Hyclone, Logan, Utah)) and plated at a density of 25-50 k cells per well into a 96-well plate for at least 6 hours. Representative compounds were diluted in serum-free medium and added 1:1 to plated cells in replicate wells (2.5% CDSS final). Plates were incubated for 3 days at 37° C. and subsequently frozen at −80° C. to lyse cells after removing the medium. Thawed plates were incubated with a chromogenic substrate of AP, p-nitrophenyl phosphate (Invitrogen, Grand Island, N.Y.), for 40 minutes at 40° C. Absorbances were read at 405 nm using a plate spectrophotometer. AP activity was normalized to 500 pM 17β-estradiol (E2), reported as the maximum activity observed for each individual experiment, regardless of dose.

[4] = test system: AP activity in ECC-1 cells; experiment: Alkaline phosphatase (AP) assay in ECC-1 cells co-treated with 500 pM E2; assay type: cell-based, human; settings: 3 days
Experimental: as §1
AP activity was assayed as in Example 28 but cells were co-treated with 500 pM E2.

[5] = Homo sapiens, MCF7, MCF-7 cells

SMILES | IC50 ([1]; MCF-7 cells) | IC50 ([2]; MCF-7 cells) | Relative change ERα levels (% vehicle) (ERα) | Induction of AP activity in uterine cells (% E2) [3] | AP activity (% E2), cells co-treated with 500 pM E2 [4] | IC50 [1, 5] | IC50 [2, 5]
CCCN1CC(Oc2ccc(C3Oc4cc(O)ccc4C(C)=C3c3ccc(O)cc3)cc2)C1 (single isomer, unassigned) [Compound 105, 3-(4-hydroxyphenyl)-4-methyl-2-(4-((1-propylazetidin-3-yl)oxy)phenyl)-2H-chromen-7-ol] | 4 nM | 10 nM | 39 % veh | 4 % E2 | 4 % E2 |  | 
CCCN1CC(Oc2ccc(C3Oc4cc(O)ccc4C(C)=C3c3ccc(F)cc3)cc2)C1 (stereo not drawn) [Compound 115, 3-(4-fluorophenyl)-4-methyl-2-(4-((1-propylazetidin-3-yl)oxy)phenyl)-2H-chromen-7-ol] |  |  |  | 20 % E2 | 42 % E2 | 10 nM | 15 nM
CCCN1CC(Oc2ccc(C3Oc4cc(O)ccc4C(C)=C3c3ccccc3)cc2)C1 (stereo not drawn) [Compound 114, 4-methyl-3-phenyl-2-(4-((1-propylazetidin-3-yl)oxy)phenyl)-2H-chromen-7-ol] |  |  |  | 15 % E2 | 23 % E2 | 5 nM | 14 nM
CCCN1CC(Oc2ccc(C3Oc4cc(O)ccc4C(C)=C3c3ccc(O)cc3)cc2)C1 (single isomer, unassigned) [Compound 106, 3-(4-hydroxyphenyl)-4-methyl-2-(4-((1-propylazetidin-3-yl)oxy)phenyl)-2H-chromen-7-ol] | 54 nM | 114 nM | 53 % veh | 17 % E2 | 44 % E2 |  | 
CCCN1CC(Cc2ccc(C3Oc4cc(O)ccc4C(C)=C3c3ccc(O)cc3)cc2)C1 (stereo not drawn) [Compound 101, 3-(4-hydroxyphenyl)-4-methyl-2-(4-((1-propylazetidin-3-yl)methyl)phenyl)-2H-chromen-7-ol] |  |  | 51 % veh | 9 % E2 | 8 % E2 | 3 nM | 7 nM
CCCN1CC(Cc2ccc(C3Oc4cc(O)ccc4C(C)=C3c3ccc(O)cc3)cc2F)C1 (single isomer, unassigned) [Compound 113, 2-(3-fluoro-4-((1-propylazetidin-3-yl)methyl)phenyl)-3-(4-hydroxyphenyl)-4-methyl-2H-chromen-7-ol] | 13 nM | 24 nM | 38 % veh | 17 % E2 | 15 % E2 |  | 
CCCN1CC(Oc2ccc(C3Oc4cc(O)ccc4C(C)=C3c3ccc(O)cc3)cc2F)C1 (single isomer, unassigned) [Compound 109, 2-(3-fluoro-4-((1-propylazetidin-3-yl)oxy)phenyl)-3-(4-hydroxyphenyl)-4-methyl-2H-chromen-7-ol] | 109 nM | 40 nM |  | 18 % E2 | 42 % E2 |  | 
CCCN1CC(Oc2ccc(C3Oc4cc(O)ccc4C(C)=C3c3ccccc3)cc2)C1 (single isomer, unassigned) [Compound 117, 4-methyl-3-phenyl-2-(4-((1-propylazetidin-3-yl)oxy)phenyl)-2H-chromen-7-ol] | 4 nM | 33 nM | 45 % veh | 16 % E2 | 8 % E2 |  | 
CCCN1CC(Cc2ccc(C3Oc4cc(O)ccc4C(C)=C3c3ccc(O)cc3)cc2)C1 (single isomer, unassigned) [Compound 102, 3-(4-hydroxyphenyl)-4-methyl-2-(4-((1-propylazetidin-3-yl)methyl)phenyl)-2H-chromen-7-ol] | 2 nM | 6 nM | 50 % veh | 9 % E2 | 8 % E2 |  | 
CCCN1CC(Oc2ccc(C3Oc4cc(O)ccc4C(C)=C3c3ccccc3)cc2)C1 (single isomer, unassigned) [Compound 118, 4-methyl-3-phenyl-2-(4-((1-propylazetidin-3-yl)oxy)phenyl)-2H-chromen-7-ol] | 254 nM | 132 nM | 55 % veh | 104 % E2 | 16 % E2 |  | 
CCCN1CC(Oc2ccc(C3Oc4cc(O)ccc4C(C)=C3c3ccc(O)cc3)cc2F)C1 (single isomer, unassigned) [Compound 108, 2-(3-fluoro-4-((1-propylazetidin-3-yl)oxy)phenyl)-3-(4-hydroxyphenyl)-4-methyl-2H-chromen-7-ol] | 1 nM | 9 nM |  | 3 % E2 | 4 % E2 |  | 
CCCN1CC(Oc2ccc(C3Oc4cc(O)ccc4C(C)=C3c3ccccc3C(C)C)cc2)C1 (stereo not drawn) [Compound 119, 3-(2-isopropylphenyl)-4-methyl-2-(4-((1-propylazetidin-3-yl)oxy)phenyl)-2H-chromen-7-ol] |  |  | 36 % veh | 44 % E2 | 18 % E2 | 15 nM | 33 nM
CCCN1CC(Oc2ccc(C3Oc4cc(O)ccc4C(C)=C3c3ccc(O)cc3)cc2)C1 (stereo not drawn) [Compound 104, 3-(4-hydroxyphenyl)-4-methyl-2-(4-((1-propylazetidin-3-yl)oxy)phenyl)-2H-chromen-7-ol] |  |  | 44 % veh | 5 % E2 | 4 % E2 | 2 nM | 6 nM
CCCN1CC(Oc2ccc(C3Oc4cc(O)ccc4C(C)=C3c3ccc(O)cc3)cc2F)C1 (stereo not drawn) [Compound 107, 2-(3-fluoro-4-((1-propylazetidin-3-yl)oxy)phenyl)-3-(4-hydroxyphenyl)-4-methyl-2H-chromen-7-ol] |  |  |  | 3 % E2 | 4 % E2 | 5 nM | 13 nM
CCCN1CC(Oc2ccc(C3Oc4cc(O)ccc4C(C)=C3c3ccc(F)cc3Cl)cc2)C1 (stereo not drawn) [Compound 116, 3-(2-chloro-4-fluorophenyl)-4-methyl-2-(4-((1-propylazetidin-3-yl)oxy)phenyl)-2H-chromen-7-ol] |  |  |  | 9 % E2 | 24 % E2 | 5 nM | 5 nM
